Data set [1] addresses Voltage-gated inwardly rectifying potassium channel KCNH2 (Homo sapiens, UniProt Q12809). Kind of data set: Inhibition of human ERG.
Data set [2] in a line: Intrinsic clearance in rat hepatocytes assessed per million cells. The note with it: read-out: CLH. Format: ADME, cell-based, Hepatocyte.
Data set [3] is described as follows: Distribution coefficient, log D of the compound in buffer/octanol solution by shake-flask method. Format: physicochemical.
Data set [4] is described as follows: Intrinsic permeability in human Caco2 cells. In kind it is ADME, cell-based. The note with it: Caco-2. On the technique in general: Caco-2 cells form a polarised layer with tight junctions and transporters.
A short description of data set [5]: Dissociation constant, pKa of the compound (morpholine). Format: physicochemical.

SMILES strings stand for the structures.

Voltage-gated inwardly rectifying potassium channel KCNH2, sequence (Q12809 whole entry): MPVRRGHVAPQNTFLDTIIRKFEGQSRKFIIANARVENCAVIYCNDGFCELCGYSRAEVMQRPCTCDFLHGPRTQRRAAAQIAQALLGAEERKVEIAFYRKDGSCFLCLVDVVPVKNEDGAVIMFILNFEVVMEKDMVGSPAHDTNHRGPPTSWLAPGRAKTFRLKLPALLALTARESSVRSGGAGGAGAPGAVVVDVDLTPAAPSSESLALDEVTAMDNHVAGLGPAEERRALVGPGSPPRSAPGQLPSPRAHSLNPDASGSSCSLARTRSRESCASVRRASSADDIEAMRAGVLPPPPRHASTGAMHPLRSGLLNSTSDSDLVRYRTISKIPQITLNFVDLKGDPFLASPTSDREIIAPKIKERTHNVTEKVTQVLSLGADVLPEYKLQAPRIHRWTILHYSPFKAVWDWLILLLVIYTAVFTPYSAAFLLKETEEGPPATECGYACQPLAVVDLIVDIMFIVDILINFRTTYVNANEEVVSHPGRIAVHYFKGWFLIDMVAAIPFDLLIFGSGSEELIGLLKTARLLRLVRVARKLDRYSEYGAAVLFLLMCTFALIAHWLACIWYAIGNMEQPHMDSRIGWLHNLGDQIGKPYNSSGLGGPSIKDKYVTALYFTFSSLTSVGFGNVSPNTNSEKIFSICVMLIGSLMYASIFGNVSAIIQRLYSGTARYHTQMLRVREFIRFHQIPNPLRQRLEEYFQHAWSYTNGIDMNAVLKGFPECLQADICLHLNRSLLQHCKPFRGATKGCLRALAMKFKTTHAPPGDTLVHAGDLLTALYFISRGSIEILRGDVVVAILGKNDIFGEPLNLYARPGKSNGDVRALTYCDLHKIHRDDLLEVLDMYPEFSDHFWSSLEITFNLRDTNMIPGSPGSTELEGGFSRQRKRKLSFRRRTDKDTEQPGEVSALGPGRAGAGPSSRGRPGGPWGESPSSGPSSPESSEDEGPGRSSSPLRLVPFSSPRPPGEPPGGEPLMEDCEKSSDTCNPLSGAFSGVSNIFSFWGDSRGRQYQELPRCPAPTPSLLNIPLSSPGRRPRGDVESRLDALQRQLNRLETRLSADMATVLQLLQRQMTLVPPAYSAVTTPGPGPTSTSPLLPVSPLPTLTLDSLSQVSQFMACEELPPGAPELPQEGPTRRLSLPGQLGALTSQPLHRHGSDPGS

The IC50 is the concentration at which inhibition is half-maximal. Low readings indicate higher potency, high ones lower potency. The term logD denotes the decadic logarithm of the distribution of all forms, ionised or not, between an organic phase and buffer at a given pH. In general, Papp refers to the rate of passage across a membrane or cell layer, normalised by area and donor concentration. Low values mean slow passage, high ones fast passage. In data set [1], `Cc1c[nH]c2ncnc(O[C@H]3CC[C@H](N4CCO[C@H](C)C4)CC3)c12` gave a concentration for half-maximal inhibition (IC50) above 39.8 µM. Also, the hepatocyte CLint in data set [2] was 210 µL/min/1e6 cells. The compound further came in with a log distribution coefficient (logD) in data set [3] of 3.1. In data set [4], this compound came in with a Papp of 27 ×10⁻⁶ cm/s.
A word on the pKa: it is the pH at which an ionisable group is half protonated. Read a low pKa as a group that gives up its proton readily. Turning to `Cc1c[nH]c2ncnc(O[C@H]3CC[C@H](N4C[C@H]5C[C@@H]4CO5)CC3)c12`, the IC50 in data set [1] is above 39.8 µM. Further, in data set [5], the pKa came to 8.1. In addition, the hepatocyte CLint in data set [2] was found to be 110 µL/min/1e6 cells. In addition, in data set [3], the pH-dependent lipophilicity (logD) amounted to 1.8. Moreover, the Papp in data set [4] amounted to 25 ×10⁻⁶ cm/s.
`Cc1c[nH]c2ncnc(O[C@H]3CC[C@H](N4C[C@@H]5C[C@H]4CO5)CC3)c12` gave an IC50 in data set [1] above 39.8 µM. In data set [2], the hepatocyte CLint worked out at 36 µL/min/1e6 cells. Moreover, the logD in data set [3] worked out at 2. In data set [4], the Papp is 29 ×10⁻⁶ cm/s.
In data set [1], `Cc1c[nH]c2ncnc(O[C@H]3CC[C@H](N4CCOCC4)CC3)c12` gave an IC50 above 39.8 µM. The same compound returned a pKa in data set [5] of 7.5. Further, in data set [2], the hepatocyte CLint was 180 µL/min/1e6 cells. This compound also returned a logD in data set [3] of 2.6. Also, in data set [4], the apparent permeability coefficient (Papp) was 33 ×10⁻⁶ cm/s.
`Cc1c[nH]c2ncnc(O[C@H]3CC[C@H](N4CCO[C@@H](C)C4)CC3)c12` had an IC50 in data set [1] of 25.1 µM. The hepatocyte CLint in data set [2] was 140 µL/min/1e6 cells. In data set [3], this compound gave a pH-dependent lipophilicity (logD) of 3. Also, the Papp in data set [4] stood at 31 ×10⁻⁶ cm/s.
